Data from PubChem BioAssay (NCI).
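GI50 = concentration required for 50% inhibition of growth. TGI: concentration producing complete growth inhibition.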

How the values were obtained:
Experiment in all cases: growth of human tumour cells (NCI), 384-well format
786-0 renal = tested on: 786-0 renal
A498 renal = tested on: A498 renal
A549 NSCLC = tested on: A549 NSCLC
ACHN renal = tested on: ACHN renal
CAKI-1 renal = tested on: CAKI-1 renal
CCRF-CEM leukemia = tested on: CCRF-CEM leukemia
COLO 205 colon = tested on: COLO 205 colon
DU-145 prostate = tested on: DU-145 prostate
EKVX NSCLC = tested on: EKVX NSCLC
HCC-2998 colon = tested on: HCC-2998 colon
HCT-15 colon = tested on: HCT-15 colon
HL-60(TB) leukemia = tested on: HL-60(TB) leukemia
HOP-62 NSCLC = tested on: HOP-62 NSCLC
HOP-92 NSCLC = tested on: HOP-92 NSCLC
HS 578T breast = tested on: HS 578T breast
HT29 colon = tested on: HT29 colon
IGROV1 ovarian = tested on: IGROV1 ovarian
K-562 leukemia = tested on: K-562 leukemia
KM12 colon = tested on: KM12 colon
LOX IMVI melanoma = tested on: LOX IMVI melanoma
M14 melanoma = tested on: M14 melanoma
MALME-3M melanoma = tested on: MALME-3M melanoma
MCF7 breast = tested on: MCF7 breast
MDA-MB-231 breast = tested on: MDA-MB-231 breast
MDA-MB-435 melanoma = tested on: MDA-MB-435 melanoma
MDA-MB-468 breast = tested on: MDA-MB-468 breast
MOLT-4 leukemia = tested on: MOLT-4 leukemia
NCI-H226 lung = tested on: NCI-H226 lung
NCI-H23 lung = tested on: NCI-H23 lung
NCI-H322M lung = tested on: NCI-H322M lung
NCI-H460 NSCLC = tested on: NCI-H460 NSCLC
NCI-H522 lung = tested on: NCI-H522 lung
NCI/ADR-RES ovarian = tested on: NCI/ADR-RES ovarian
OVCAR-3 ovarian = tested on: OVCAR-3 ovarian
OVCAR-4 ovarian = tested on: OVCAR-4 ovarian
OVCAR-5 ovarian = tested on: OVCAR-5 ovarian
OVCAR-8 ovarian = tested on: OVCAR-8 ovarian
PC-3 prostate = tested on: PC-3 prostate
RPMI-8226 leukemia = tested on: RPMI-8226 leukemia
RXF 393 renal = tested on: RXF 393 renal
SF-268 CNS = tested on: SF-268 CNS
SF-295 CNS = tested on: SF-295 CNS
SF-539 CNS = tested on: SF-539 CNS
SK-MEL-28 melanoma = tested on: SK-MEL-28 melanoma
SK-MEL-5 melanoma = tested on: SK-MEL-5 melanoma
SK-OV-3 ovarian = tested on: SK-OV-3 ovarian
SN12C renal = tested on: SN12C renal
SNB-19 CNS = tested on: SNB-19 CNS
SNB-75 CNS = tested on: SNB-75 CNS
SR leukemia = tested on: SR leukemia
SW-620 colon = tested on: SW-620 colon
T-47D breast = tested on: T-47D breast
TK-10 renal = tested on: TK-10 renal
U251 glioblastoma = tested on: U251 glioblastoma
UACC-257 melanoma = tested on: UACC-257 melanoma
UACC-62 melanoma = tested on: UACC-62 melanoma
UO-31 renal = tested on: UO-31 renal

## CN[C@@H](C)C(=O)N[C@H](C(=O)N1CCC[C@H]1C(=O)Nc1snnc1-c1ccccc1)C1CCCCC1
786-0 renal
  GI50: 31.1 µM
  TGI: > 100 µM
A498 renal
  GI50: 26.4 µM
  TGI: 74.6 µM
A549 NSCLC
  GI50: > 100 µM
  TGI: > 100 µM
ACHN renal
  GI50: 17.4 µM
  TGI: 39.5 µM
CAKI-1 renal
  GI50: 52.1 µM
  TGI: > 100 µM
CCRF-CEM leukemia
  GI50: 10.9 µM
  TGI: 32.2 µM
COLO 205 colon
  GI50: 34.5 µM
  TGI: > 100 µM
DU-145 prostate
  GI50: 49.9 µM
  TGI: > 100 µM
EKVX NSCLC
  GI50: 97.3 µM
  TGI: > 100 µM
HCC-2998 colon
  GI50: 21.5 µM
  TGI: 40.9 µM
HCT-15 colon
  GI50: 80.7 µM
  TGI: > 100 µM
HL-60(TB) leukemia
  GI50: 0.412 µM
  TGI: 15.5 µM
HOP-62 NSCLC
  GI50: 11.2 µM
  TGI: 33.2 µM
HOP-92 NSCLC
  GI50: 18.1 µM
  TGI: 73.6 µM
HS 578T breast
  GI50: 34.5 µM
  TGI: > 100 µM
HT29 colon
  GI50: 17.3 µM
  TGI: 35.7 µM
IGROV1 ovarian
  GI50: 64.5 µM
  TGI: > 100 µM
K-562 leukemia
  GI50: 19.1 µM
  TGI: 35.3 µM
KM12 colon
  GI50: 60.1 µM
  TGI: > 100 µM
LOX IMVI melanoma
  GI50: 37.9 µM
  TGI: > 100 µM
M14 melanoma
  GI50: 28.2 µM
  TGI: 72.7 µM
MALME-3M melanoma
  GI50: 0.0294 µM
  TGI: 0.392 µM
MCF7 breast
  GI50: 31.7 µM
  TGI: > 100 µM
MDA-MB-231 breast
  GI50: 0.0979 µM
  TGI: 2.51 µM
MDA-MB-435 melanoma
  GI50: 31.2 µM
  TGI: > 100 µM
MDA-MB-468 breast
  GI50: 6.93 µM
  TGI: 26.9 µM
MOLT-4 leukemia
  GI50: 17.8 µM
  TGI: 35.6 µM
NCI-H226 lung
  GI50: 70.7 µM
  TGI: > 100 µM
NCI-H23 lung
  GI50: 14.2 µM
  TGI: > 100 µM
NCI-H322M lung
  GI50: > 100 µM
  TGI: > 100 µM
NCI-H460 NSCLC
  GI50: 38.7 µM
  TGI: > 100 µM
NCI-H522 lung
  GI50: 2.44 µM
  TGI: 11.9 µM
NCI/ADR-RES ovarian
  GI50: 5.89 µM
  TGI: 45.2 µM
OVCAR-3 ovarian
  GI50: 26.2 µM
  TGI: > 100 µM
OVCAR-4 ovarian
  GI50: 0.0142 µM
  TGI: 0.046 µM
OVCAR-5 ovarian
  GI50: 59.1 µM
  TGI: > 100 µM
OVCAR-8 ovarian
  GI50: 16.5 µM
  TGI: 36.2 µM
PC-3 prostate
  GI50: 45.6 µM
  TGI: > 100 µM
RPMI-8226 leukemia
  GI50: 22.7 µM
  TGI: 57.2 µM
RXF 393 renal
  GI50: 0.444 µM
  TGI: 23.8 µM
SF-268 CNS
  GI50: > 100 µM
  TGI: > 100 µM
SF-295 CNS
  GI50: 64 µM
  TGI: > 100 µM
SF-539 CNS
  GI50: 40.1 µM
  TGI: > 100 µM
SK-MEL-28 melanoma
  GI50: 22.7 µM
  TGI: 64.4 µM
SK-MEL-5 melanoma
  GI50: 0.845 µM
  TGI: 18.1 µM
SK-OV-3 ovarian
  TGI: 2.78 µM
SN12C renal
  GI50: > 100 µM
  TGI: > 100 µM
SNB-19 CNS
  GI50: > 100 µM
  TGI: > 100 µM
SNB-75 CNS
  GI50: 38.7 µM
  TGI: > 100 µM
SR leukemia
  GI50: 13.5 µM
  TGI: 33.6 µM
SW-620 colon
  GI50: > 100 µM
  TGI: > 100 µM
T-47D breast
  GI50: 45.5 µM
  TGI: > 100 µM
TK-10 renal
  GI50: 18.6 µM
  TGI: 46.2 µM
U251 glioblastoma
  GI50: 59.7 µM
  TGI: > 100 µM
UACC-257 melanoma
  GI50: 16.6 µM
  TGI: 32.5 µM
UACC-62 melanoma
  GI50: 30.1 µM
  TGI: 91.5 µM
UO-31 renal
  GI50: 8.13 µM
  TGI: > 100 µM
